Here are results for three molecules from ChEMBL document CHEMBL6109101, “Synthesis and bioactivity of cyclic peptide GG-8-6 analogues as anti-hepatocellular carcinoma agents” (Eur J Med Chem, 2025).

The test system of data set [1] is MHCC97H. In words: Antitumor activity against human MHCC97H cells xenografted in nude mouse assessed as tumor growth inhibition at 20 mg/kg, po administered daily for 3 weeks relative to control. Type of data set: functional. The settings on record: 504 h, read-out: TGI. (In general: A xenograft is tissue or cells of one species grown in another, often human tumour cells in immunodeficient mice.)

Data set [2] relates to HepG2. In words: Cytotoxicity against human HepG2 cells assessed as inhibition of cell proliferation incubated for 48 hrs by MTT assay. Format: functional, cell-based. As to conditions: HepG2, 48 h. On the technique in general: Tetrazolium assays rely on reduction of a dye to a coloured formazan, in cell work by metabolically active cells.
For data set [3], the system named is HCCLM3. In words: Cytotoxicity against human HCCLM3 cells assessed as inhibition of cell proliferation incubated for 48 hrs by MTT assay. The settings on record: HCCLM3, 48 h. Type of data set: functional, cell-based.
Data set [4] deals with MHCC97H. In words: Antitumor activity against human MHCC97H cells xenografted in nude mouse assessed as tumor weight at 20 mg/kg, po administered daily for 3 weeks (reference value: 1.667g). Format: functional.
Data set [5] deals with Huh-7. In words: Cytotoxicity against human Huh-7 cells assessed as inhibition of cell proliferation incubated for 48 hrs by MTT assay. Format: functional, cell-based. As to conditions: Huh-7, 48 h.
Data set [6] is described as follows: Toxicity in nude mouse implanted with human MHCC97H cells assessed as body weight at 20 mg/kg, po administered daily for 3 weeks and measured immediately (reference value: 25.05 g). Type of data set: organism-based. The settings on record: in vivo, 504 h.
The test system of data set [7] is MHCC97H. In words: Cytotoxicity against human MHCC97H cells assessed as inhibition of cell proliferation incubated for 48 hrs by MTT assay. Format: functional, cell-based.
The subject of data set [8] is MHCC97H. In words: Antiproliferative activity against human MHCC97H cells assessed as reduction in intracellular ATP level at 10 uM incubated for 48 hrs by luminometer analysis relative to control. The arrangement: scale not given: the % may be the effect or the level left. Format: functional.
Data set [9] concerns MHCC97H. In words: Antitumor activity against human MHCC97H cells xenografted in nude mouse assessed as tumor weight at 5 mg/kg, po administered daily for 3 weeks (reference value: 1.667g). Format: functional.
In data set [10] the test system is MHCC97H. In words: Antitumor activity against human MHCC97H cells xenografted in nude mouse assessed as tumor growth inhibition at 5 mg/kg, po administered daily for 3 weeks relative to control. The settings on record: 504 h, read-out: TGI. Format: functional.
Data set [11] deals with Huh-7. In words: Antiproliferative activity against human Huh-7 cells assessed as reduction in intracellular ATP level at 10 uM incubated for 48 hrs by luminometer analysis relative to control. Format: functional. The arrangement: scale not given: the % may be the effect or the level left.
Data set [12] concerns HCCLM3. In words: Antiproliferative activity against human HCCLM3 cells assessed as reduction in intracellular ATP level at 10 uM incubated for 48 hrs by luminometer analysis relative to control. The arrangement: scale not given: the % may be the effect or the level left. Format: functional.
The subject of data set [13] is MHCC97H. In words: Antitumor activity against human MHCC97H cells xenografted in nude mouse assessed as tumor growth inhibition at 10 mg/kg, po administered daily for 3 weeks relative to control. Format: functional. The settings on record: 504 h, read-out: TGI.
In data set [14] the test system is MHCC97H. In words: Antitumor activity against human MHCC97H cells xenografted in nude mouse assessed as tumor growth inhibition at 15 mg/kg, po administered daily for 3 weeks relative to control. Type of data set: functional. The settings on record: 504 h, read-out: TGI.
Data set [15] deals with MHCC97H. In words: Antitumor activity against human MHCC97H cells xenografted in nude mouse assessed as tumor weight at 10 mg/kg, po administered daily for 3 weeks (reference value: 1.667g). Type of data set: functional.
Data set [16] relates to MHCC97H. In words: Antiproliferative activity against human MHCC97H cells assessed as reduction in intracellular ATP level at 30 uM incubated for 48 hrs by luminometer analysis relative to control. Type of data set: functional. Further details: scale not given: the % may be the effect or the level left.
Data set [17] relates to HepG2. In words: Antiproliferative activity against human HepG2 cells assessed as reduction in intracellular ATP level at 10 uM incubated for 48 hrs by luminometer analysis relative to control. Further details: scale not given: the % may be the effect or the level left. Type of data set: functional.
Data set [18] relates to MHCC97H. In words: Antitumor activity against human MHCC97H cells xenografted in nude mouse assessed as tumor weight at 15 mg/kg, po administered daily for 3 weeks (reference value: 1.667g). Format: functional.
Data set [19] relates to HCCLM3. In words: Cytotoxicity against human HCCLM3 cells assessed as cell viability incubated at 12 to 48 hrs hrs by MTT assay. Type of data set: functional, cell-based. The settings on record: dose <= 40.0 µM, time 12-48 hrs.
The test system of data set [20] is HCCLM3. In words: Cytotoxicity against human HCCLM3 cells assessed as cell viability up to 40 uM measured at 24 to 48 hrs by MTT assay. Format: functional, cell-based. The settings on record: time 24-48 hrs.
In data set [21] the test system is MHCC97H. In words: Cytotoxicity against human MHCC97H cells assessed as cell viability incubated at 12 to 48 hrs hrs by MTT assay. The settings on record: dose <= 40.0 µM, time 12-48 hrs. Type of data set: functional, cell-based.
Data set [22] relates to MHCC97H. In words: Cytotoxicity against human MHCC97H cells assessed as reduction in cell viability at 40 uM measured at 48 hrs by MTT assay. Type of data set: functional, cell-based.
The subject of data set [23] is HCCLM3. In words: Cytotoxicity against human HCCLM3 cells assessed as reduction in cell viability at 40 uM measured after 48 hrs by MTT assay. Format: functional, cell-based.
Data set [24] deals with MHCC97H. In words: Cytotoxicity against human MHCC97H cells assessed as cell viability up to 40 uM measured at 24 to 48 hrs by MTT assay. Type of data set: functional, cell-based. The settings on record: time 24-48 hrs.
The subject of data set [25] is HCCLM3. In words: Cytotoxicity against human HCCLM3 cells assessed as cell viability up to 40 uM by MTT assay. Format: functional, cell-based. As to conditions: time 12-48 hrs.
The test system of data set [26] is MHCC97H. In words: Cytotoxicity against human MHCC97H cells assessed as reduction in cell viability at 40 uM measured after 48 hrs by MTT assay. Format: functional, cell-based.
Data set [27] has as its system MHCC97H. In words: Antitumor activity against human MHCC97H cells xenografted in nude mouse assessed as increase in apoptotic cells at 5 to 10 mg/kg, po administered daily for 3 weeks by TUNEL staining based assay. Format: functional, organism-based. As to conditions: dose 5-10 mg/kg.
The test system of data set [28] is HCCLM3. In words: Cytotoxicity against human HCCLM3 cells assessed as reduction in cell viability at 40 uM measured at 48 hrs by MTT assay. Type of data set: functional, cell-based.
Data set [29] has as its system HCCLM3. In words: Cytotoxicity against human HCCLM3 cells assessed as reduction in cell viability up to 40 uM measured at 48 hrs by MTT assay. Format: functional, cell-based.
The subject of data set [30] is HCCLM3. In words: Cytotoxicity against human HCCLM3 cells assessed as cell viability up to 40 uM measured at 12 hrs by MTT assay. Format: functional, cell-based.
For data set [31], the system named is MHCC97H. In words: Cytotoxicity against human MHCC97H cells assessed as reduction in cell viability up to 40 uM measured at 48 hrs by MTT assay. Type of data set: functional, cell-based.
Data set [32] concerns MHCC97H. In words: Cytotoxicity against human MHCC97H cells assessed as cell viability up to 40 uM measured at 12 hrs by MTT assay. Type of data set: functional, cell-based.
In data set [33] the test system is MHCC97H. In words: Cytotoxicity against human MHCC97H cells assessed as cell viability up to 40 uM by MTT assay. Type of data set: functional, cell-based. As to conditions: time 12-48 hrs.

Calls of active or inactive are those of the source. No cut-off for these calls is given here.

Regarding `CNC(=O)c1cc(Oc2ccc(NC(=O)Nc3ccc(Cl)c(C(F)(F)F)c3)cc2)ccn1` [SORAFENIB], the inhibition in vivo at 20 mg/kg in data set [1] is 42.8%. Also, the IC50 (in general, the concentration needed to halve the response being measured) came to 13.8 µM in data set [2], 9.22 µM in data set [3], 13.8 µM in data set [5] and 15.2 µM in [7]. Moreover, the values for the Activity in data set [4] and in data set [6] were 0.955 g and 26.85 g, respectively.

`CC[C@H](C)[C@@H]1NC(=O)[C@@H]2CCCN2C(=O)[C@H](CC(C)C)NC(=O)[C@H](CO)NC(=O)[C@H](CC(C)C)NC(=O)[C@H](C(C)C)NC(=O)[C@H](CC(C)C)NC(=O)[C@H](CC(C)C)NC(=O)[C@H](CC(C)C)NC1=O`: the Activity in [8] is on record as 47.3%; in data set [9], 0.552 g; in data set [11], 47.3%; in data set [12], 45.9%; in data set [15] it was 0.732 g; in data set [16] it was 61.9%. Also, the Activity is on record as 47.1% in [17] and 0.695 g in [18]. For the same molecule, the inhibition in vivo at 5 mg/kg in [10] was 66.9%. For the same molecule, the inhibition in vivo at 10 mg/kg in [13] turned out to be 56.1%. In [14], the inhibition in vivo at 15 mg/kg stood at 58.4%.

As to `CC[C@@H](C)[C@H]1NC(=O)[C@@H]2CCCN2C(=O)[C@@H](CC(C)C)NC(=O)[C@H](COC(C)(C)C)NC(=O)[C@@H](CC(C)C)NC(=O)[C@H](C(C)C)NC(=O)[C@H](CC(C)C)NC(=O)[C@H](CC(C)C)NC(=O)[C@H](CC(C)C)NC1=O`, the Activity result in [19] is “Dose-dependent-effect”; in data set [21], “Dose-dependent-effect”; in data set [25], “Time-dependent-effect”; in data set [33], “Time-dependent-effect”. Further, the outcome in [20], in [22], in [23], in data set [24], in data set [26] and in data set [27] was Active. Besides, the result in data set [28], in data set [29], in data set [30], in data set [31] and in data set [32] was Active.
